In assay [1] the target is T1, (2S)-methylsuccinyl-CoA dehydrogenase (Mcd) (Cereibacter sphaeroides, UniProt D3JV03, W315F/T317G/E377N). To be noted: dioxygen as electron acceptor, substrate made in situ from ethylmalonyl-CoA, pH 7.8, 30 °C.
Assay [2] addresses (2S)-methylsuccinyl-CoA dehydrogenase (Mcd) (Cereibacter sphaeroides, UniProt D3JV03, T317G). To be noted: dioxygen as electron acceptor, substrate made in situ from ethylmalonyl-CoA, pH 7.8, 30 °C.
For assay [3], the target named is T2, (2S)-methylsuccinyl-CoA dehydrogenase (Mcd) (Cereibacter sphaeroides, UniProt D3JV03). The settings on record: ETF as electron acceptor (55 µM), pH 7.8, 30 °C.
T2 sequence (D3JV03 whole entry): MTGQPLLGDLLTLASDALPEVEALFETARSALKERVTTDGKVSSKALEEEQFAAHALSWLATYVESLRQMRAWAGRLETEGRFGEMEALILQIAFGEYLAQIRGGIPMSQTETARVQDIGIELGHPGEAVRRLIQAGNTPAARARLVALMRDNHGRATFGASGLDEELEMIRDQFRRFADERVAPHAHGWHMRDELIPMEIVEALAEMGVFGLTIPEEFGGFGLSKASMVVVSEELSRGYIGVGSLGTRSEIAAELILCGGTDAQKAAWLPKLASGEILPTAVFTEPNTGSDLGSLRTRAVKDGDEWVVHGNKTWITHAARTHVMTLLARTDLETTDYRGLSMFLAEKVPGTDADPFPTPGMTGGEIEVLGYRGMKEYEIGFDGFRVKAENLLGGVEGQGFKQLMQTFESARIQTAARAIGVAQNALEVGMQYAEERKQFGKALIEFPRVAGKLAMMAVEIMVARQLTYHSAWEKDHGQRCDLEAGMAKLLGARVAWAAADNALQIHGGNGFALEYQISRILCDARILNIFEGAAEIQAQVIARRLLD
The target in assay [4] is T2, (2S)-methylsuccinyl-CoA dehydrogenase (Mcd). The settings on record: holoenzyme, pH 7.7, 25 °C.
Assay [5] deals with T3, ETF (electron transfer flavoprotein) (Cereibacter sphaeroides, UniProt Q9AQC3+Q9AQC4).
T3 construct: gene etfA; plasmid pTE392 (pCDFDuet-1), alpha subunit N-terminal His6-tag, E. coli BL21 (DE3), heterodimer
T3 sequence (Q9AQC4 entry or part of it): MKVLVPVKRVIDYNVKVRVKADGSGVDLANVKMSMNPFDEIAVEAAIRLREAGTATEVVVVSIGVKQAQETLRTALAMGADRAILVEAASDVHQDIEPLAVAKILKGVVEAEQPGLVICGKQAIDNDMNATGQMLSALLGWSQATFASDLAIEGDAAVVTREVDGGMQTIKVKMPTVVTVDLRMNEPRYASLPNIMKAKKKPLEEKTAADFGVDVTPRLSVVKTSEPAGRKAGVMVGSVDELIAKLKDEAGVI
T3 sequence (Q9AQC3 entry or part of it): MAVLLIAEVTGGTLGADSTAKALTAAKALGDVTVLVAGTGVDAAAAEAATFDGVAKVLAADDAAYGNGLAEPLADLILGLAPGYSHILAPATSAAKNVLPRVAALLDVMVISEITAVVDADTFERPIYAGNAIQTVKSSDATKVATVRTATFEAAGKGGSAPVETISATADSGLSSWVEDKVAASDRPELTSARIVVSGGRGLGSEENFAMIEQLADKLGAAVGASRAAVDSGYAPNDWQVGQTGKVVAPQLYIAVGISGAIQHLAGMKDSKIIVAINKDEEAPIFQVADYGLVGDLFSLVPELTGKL
Briefly: absorbance of ETF-bound FAD at […] nm. In kind it is binding. To be noted: 55 µM ETF reduced by 0.1 µM Mcd, pH 7.8, 30 °C.

In assay [6] the target is T1, (2S)-methylsuccinyl-CoA dehydrogenase (Mcd). The settings on record: FAD-reconstituted enzyme, 12 µM (2S)-methylsuccinyl-CoA, pH 7.5.

T1 sequence (D3JV03 whole entry W315F/T317G/E377N): as the sequence (D3JV03 whole entry) above, with W315F, T317G, E377N counted along it
(2S)-methylsuccinyl-CoA dehydrogenase (Mcd) (Cereibacter sphaeroides, UniProt D3JV03, T317G), sequence (D3JV03 whole entry T317G): as the sequence (D3JV03 whole entry) above, with T317G counted along it

`C[C@@H](CC(=O)O)C(=O)SCCNC(=O)CCNC(=O)[C@H](O)C(C)(C)COP(=O)(O)OP(=O)(O)OC[C@H]1O[C@@H](n2cnc3c(N)ncnc32)[C@H](O)[C@@H]1OP(=O)(O)O` (mixture of isomers) [(2S)-methylsuccinyl-CoA]: the “LC mesaconyl-CoA formation; FAD absorbance at 440 nm” value in assay [1] and in assay [2] was “The re-oxidation of the two enzymes was accompanied by product (mesaconyl-CoA) formation” each time. The “LC-MS mesaconyl-CoA formation; FAD / ETF absorbance at 440 nm” value in assay [3] was “Mcd showed a fast electron transfer from the CTC to ETF”.

With `Cc1cc2nc3c(=O)[nH]c(=O)nc-3n(C[C@H](O)[C@H](O)[C@H](O)COP(=O)(O)OP(=O)(O)OC[C@H]3O[C@@H](n4cnc5c(N)ncnc54)[C@H](O)[C@@H]3O)c2cc1C` [FAD], the “co-purification; visible absorbance of bound flavin at 440 nm” value in assay [4] is “Concentration of Mcd, which eluted with bound FAD cofactor”. Besides, the “absorbance of ETF-bound FAD at 440 nm” value in assay [5] is recorded as “allowed for the direct observation of ETF-bound FAD”. In addition, the “50 kDa ultrafiltration of FAD; flow-through spectrum” value in assay [6] is “FAD does not dissociate from the enzyme during catalysis”.

The record behind these values is publication PMC6017585, “Molecular Basis for Converting (2S)-Methylsuccinyl-CoA Dehydrogenase into an Oxidase” (Molecules : A Journal of Synthetic Chemistry and Natural …, 2017).
